# According to ChEMBL document CHEMBL4138120, “Modification of C-seco taxoids through ring tethering and substituent replacement leading to effective agents against tumor drug resistance mediated by βIII-Tubulin and P-glycoprotein (P-gp) overexpressions” (Eur J Med Chem, 2017):
# Key:
# HeLa [1] = experiment: Cytotoxicity against human HeLa cells assessed as decrease in cell viability after 48 hrs by MTT assay; assay type: functional, cell-based
# [2] = Cytotoxicity against human Hela-beta3 cells assessed as decrease in cell viability after 48 hrs by MTT assay; assay type: functional, cell-based
# [3] = Resistance index, ratio of IC50 for human Hela-beta3 cells to IC50 for human HeLa cells; assay type: functional
# Bos taurus [4] = organism: Bos taurus; experiment: Induction of calf brain microtubule assembly assessed as concentration of unassembled tubulin at 25 uM incubated for 45 mins by spectrophotometric method (reference value: >20 uM)
# KB-V1 = experiment: Cytotoxicity against human KBV1 cells assessed as decrease in cell viability after 48 hrs by MTT assay; assay type: functional, cell-based; details: KB-V1, 48 h
# Bos taurus [5] = organism: Bos taurus; experiment: Displacement of Flutax-2 from calf brain microtubule after 20 mins by fluorescence polarization assay relative to paclitaxel
# [6] = Resistance index, ratio of IC50 for human KBV1 cells to IC50 for human KB cells; assay type: functional
# HeLa [7] = experiment: Cell cycle arrest in human HeLa cells assessed as concentration at which maximal accumulation at G2/M phase after 20 hrs by propidium iodide staining-based flow cytometric method; assay type: functional
# [8] = Cytotoxicity against human A2780AD cells assessed as decrease in cell viability after 48 hrs by MTT assay; assay type: functional, cell-based
# [9] = Resistance index, ratio of IC50 for human A2780AD cells to IC50 for human A2780 cells; assay type: functional
# [10] = Cell cycle arrest in human Hela-beta3 cells assessed as concentration at which maximal accumulation at G2/M phase after 20 hrs by propidium iodide staining-based flow cytometric method; assay type: functional
# KB = experiment: Cytotoxicity against human KB cells assessed as decrease in cell viability after 48 hrs by MTT assay; assay type: functional, cell-based
# A2780 = experiment: Cytotoxicity against human A2780 cells assessed as decrease in cell viability after 48 hrs by MTT assay; assay type: functional, cell-based; details: A2780, 48 h
# [11] = Potency index, ratio of paclitaxel IC50 to test compound IC50 for human A2780AD cells; assay type: functional
# HeLa [12] = experiment: Ratio of IC50 for human HeLa cells harboring beta-3 tubulin siRNA to IC50 for human HeLa cells; assay type: functional
# [13] = Cytotoxicity against human Hela-beta3 cells assessed as decrease in cell viability after 48 hrs in presence of beta-3 tubulin siRNA by MTT assay; assay type: functional, cell-based
Structure (SMILES),IC50 (HeLa [1]),IC50 [2],Ratio IC50 [3],Unassembled tubulin concentration (Bos taurus [4]),IC50 (KB-V1),fold change (FC) (Bos taurus [5]),Ratio IC50 [6],Activity (HeLa [7]),IC50 [8],Ratio IC50 [9],Activity [10],IC50 (KB),IC50 (A2780),Ratio IC50 [11],Ratio IC50 (HeLa [12]),IC50 [13]
CO/C1=C(\C)[C@@H]([C@]2(OC(C)=O)CO[C@@H]2CCO)[C@H](OC(=O)c2ccccc2)[C@]2(O)C[C@H](OC(=O)[C@H](O)[C@@H](NC(=O)c3ccccc3)c3ccccc3)C(C)=C(C1=O)C2(C)C,0.312 µM,3.84 µM,12.3,–,–,–,–,–,–,–,–,–,–,–,–,–
COc1cccc(C(=O)O[C@H]2[C@H]([C@]3(OC(C)=O)CO[C@@H]3CCO)/C(C)=C(/O)C(=O)C3=C(C)[C@@H](OC(=O)[C@H](O)[C@H](CC(C)C)NC(=O)OC(C)(C)C)C[C@]2(O)C3(C)C)c1,0.0021 µM,0.072 µM,33.6,16.6 µM,3.4 µM,1.28,1172,80 nM,1.43 µM,279,25 nM,0.0029 µM,0.0051 µM,–,–,–
CC(=O)O[C@@]1([C@@H]2/C(C)=C(/O)C(=O)C3=C(C)[C@@H](OC(=O)[C@H](O)[C@@H](NC(=O)c4ccccc4)c4ccccc4)C[C@@](O)([C@H]2OC(=O)c2ccccc2)C3(C)C)CO[C@@H]1CCO,0.192 µM,2.98 µM,15.6,–,–,0.1,–,–,> 10 µM,>35.4,–,–,0.282 µM,–,–,–
CC(=O)O[C@@]12CO[C@@H]1CCOCCCCCO/C1=C(\C)[C@@H]2[C@H](OC(=O)c2ccccc2)[C@]2(O)C[C@H](OC(=O)[C@H](O)[C@@H](NC(=O)c3ccccc3)c3ccccc3)C(C)=C(C1=O)C2(C)C,0.0033 µM,0.0133 to 0.02 µM,6,–,–,1.3,–,–,1.4 µM,55,–,–,0.0254 µM,2 - 3,1.5,0.0052 µM
COCC[C@H]1OC[C@@]1(OC(C)=O)[C@@H]1/C(C)=C(/O)C(=O)C2=C(C)[C@@H](OC(=O)[C@H](O)[C@@H](NC(=O)c3ccccc3)c3ccccc3)C[C@@](O)([C@H]1OC(=O)c1ccccc1)C2(C)C,0.03 µM,0.226 µM,7.6,–,–,–,–,–,–,–,–,–,–,–,–,–
CC(=O)O[C@@]12CO[C@@H]1CCOC/C=C/CO/C1=C(\C)[C@@H]2[C@H](OC(=O)c2ccccc2)[C@]2(O)C[C@H](OC(=O)[C@H](O)[C@@H](NC(=O)c3ccccc3)c3ccccc3)C(C)=C(C1=O)C2(C)C,0.0035 µM,0.026 µM,7.5,–,–,0.96,–,–,1.72 µM,77.1,–,–,0.0223 µM,–,–,–
CC(=O)O[C@@]12CO[C@@H]1CCOC/C=C/CO/C1=C(\C)[C@@H]2[C@H](OC(=O)c2cccc(N=[N+]=[N-])c2)[C@]2(O)C[C@H](OC(=O)[C@H](O)[C@@H](NC(=O)c3ccccc3)c3ccccc3)C(C)=C(C1=O)C2(C)C,0.0007 µM,0.045 µM,64,2.34 µM,0.094 µM,1.15,6.2,25 nM,0.032 µM,11.4,15 nM,0.015 µM,0.0028 µM,–,–,–
CC(=O)O[C@@]12CO[C@@H]1CCOCCCCO/C1=C(\C)[C@@H]2[C@H](OC(=O)c2ccccc2)[C@]2(O)C[C@H](OC(=O)[C@H](O)[C@@H](NC(=O)c3ccccc3)c3ccccc3)C(C)=C(C1=O)C2(C)C,0.008 µM,0.058 µM,6.9,–,–,0.89,–,–,–,–,–,–,–,–,–,–
CC(=O)O[C@@]1([C@@H]2/C(C)=C(/O)C(=O)C3=C(C)[C@@H](OC(=O)[C@H](O)[C@H](CC(C)C)NC(=O)OC(C)(C)C)C[C@@](O)([C@H]2OC(=O)c2ccccc2)C3(C)C)CO[C@@H]1CCO,0.0033 µM,0.033 µM,10,3.2 µM,0.255 µM,0.132,38.7,15 nM,0.893 µM,207,15 nM,0.0066 µM,0.0043 µM,–,–,–
CC(=O)O[C@H]1C(=O)[C@@]2(C)[C@H]([C@H](OC(=O)c3ccccc3)[C@]3(O)C[C@H](OC(=O)[C@H](O)[C@@H](NC(=O)c4ccccc4)c4ccccc4)C(C)=C1C3(C)C)[C@]1(OC(C)=O)CO[C@@H]1C[C@@H]2O [PACLITAXEL],0.0011 to 0.0013 µM,0.0197 to 0.034 µM,19.6 - 31.8,5.36 µM,9.8 µM,–,5157,35 nM,1.28 to 4.55 µM,759 - 1198,15 nM,0.0019 µM,0.00107 to 0.006 µM,–,4,0.009 µM
CC(=O)O[C@@]1([C@@H]2/C(C)=C(/O)C(=O)C3=C(C)[C@@H](OC(=O)[C@H](O)[C@@H](NC(=O)c4ccccc4)c4ccccc4)C[C@@](O)([C@H]2OC(=O)c2cccc(N=[N+]=[N-])c2)C3(C)C)CO[C@@H]1CCO,0.001 µM,0.209 µM,209,3.82 µM,5.1 µM,1.18,1000,55 nM,> 5 µM,–,20 nM,0.0051 µM,0.0016 µM,–,–,–
CC(=O)O[C@@]12CO[C@@H]1CCOC/C=C/CCO/C1=C(\C)[C@@H]2[C@H](OC(=O)c2ccccc2)[C@]2(O)C[C@H](OC(=O)[C@H](O)[C@@H](NC(=O)c3ccccc3)c3ccccc3)C(C)=C(C1=O)C2(C)C,0.0279 µM,0.158 µM,5.7,–,–,0.23,–,–,–,–,–,–,–,–,–,–
CC(=O)O[C@@]12CO[C@@H]1CCOC/C=C\CCO/C1=C(\C)[C@@H]2[C@H](OC(=O)c2ccccc2)[C@]2(O)C[C@H](OC(=O)[C@H](O)[C@@H](NC(=O)c3ccccc3)c3ccccc3)C(C)=C(C1=O)C2(C)C,0.0067 µM,0.034 µM,5.1,–,–,0.96,–,–,2.19 µM,87.4,–,–,0.0251 µM,–,–,–
CC(=O)O[C@@]12CO[C@@H]1CCOCCCCCCO/C1=C(\C)[C@@H]2[C@H](OC(=O)c2ccccc2)[C@]2(O)C[C@H](OC(=O)[C@H](O)[C@@H](NC(=O)c3ccccc3)c3ccccc3)C(C)=C(C1=O)C2(C)C,0.022 µM,0.118 µM,5.3,–,–,0.61,–,–,–,–,–,–,–,–,–,–
CC(=O)O[C@@]12CO[C@@H]1CCOC/C=C/CCCO/C1=C(\C)[C@@H]2[C@H](OC(=O)c2ccccc2)[C@]2(O)C[C@H](OC(=O)[C@H](O)[C@@H](NC(=O)c3ccccc3)c3ccccc3)C(C)=C(C1=O)C2(C)C,0.126 µM,0.282 µM,2.2,–,–,0.17,–,–,–,–,–,–,–,–,–,–
CC(=O)O[C@@]1([C@@H]2/C(C)=C(/O)C(=O)C3=C(C)[C@@H](OC(=O)[C@H](O)[C@H](CC(C)C)NC(=O)OC(C)(C)C)C[C@@](O)([C@H]2OC(=O)c2cccc(N=[N+]=[N-])c2)C3(C)C)CO[C@@H]1CCO,0.0009 µM,0.019 µM,21,3.63 µM,0.503 µM,2.17,97,20 nM,0.096 µM,23.4,10 nM,0.0052 µM,0.0041 µM,–,–,–
